≈ marks a conversion by molar mass, not a printed value. Where “and” joins values, the source holds several entries; their conditions need not be identical. Equal entries are not always repeated. Structures can show the parent of a compound that is named as a salt. Where two headings read alike, the source gives them in different places. Each block holds one molecule with its values, some of them ahead of it. Bridge positions count the residues as written; N and C are the ends. Square brackets hold non-standard residues; d marks the D form. Peptide text beside a SMILES is read from it. * marks the point of attachment. Dab = NCC[C@H](N)C(=O)O; X3 = O=C([C@H]1CCCNC1)*
Assays:
[1] = test system: Escherichia coli; experiment: MIC, sole activity (no second agent); type: cell-based; details: Table 6A; no second agent; different supplier of Cation-adjusted MHB
How it was run: (§1)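 Up to four strains per species were tested in cation-adjusted Mueller-Hinton broth, with inoculum made by direct colony suspension from 18-24 hour Mueller-Hinton agar plates, adjusted to 0.5 McFarland. Duplicates differing by under 2-fold gave the lower value; greater spread voided the run. Values are relative to Polymyxin B.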

[2] = test system: Klebsiella pneumoniae; experiment: MIC, sole activity (no second agent); type: cell-based; details: Table 6A; no second agent; different supplier of Cation-adjusted MHB
How it was run: as §1

[3] = test system: Acinetobacter baumannii; experiment: MIC, sole activity (no second agent); type: cell-based; details: Table 6A; no second agent; different supplier of Cation-adjusted MHB
How it was run: as §1

[4] = test system: Pseudomonas aeruginosa; experiment: MIC, sole activity (no second agent); type: cell-based; details: Table 6A; no second agent; different supplier of Cation-adjusted MHB
How it was run: as §1

[5] = test system: HK-2 cell line; experiment: In vitro renal cell toxicity assay (resazurin reduction); type: cell-based, human
[6] = test system: P. aeruginosa ATCC27853; type: in vivo, Pseudomonas aeruginosa; details: ATCC27853, in vivo, iv, 5 mg/kg, 6 h
Protocol: Compounds were administered in solution by intravenous (IV) bolus injection into the lateral tail vein. […] At 1 hour post infection, 4 animals were humanely euthanized using pentabarbitone overdose to provide a pre-treatment control group. At 9 hours post infection, the clinical condition of all animals was assessed prior to them being humanely euthanized by pentabarbitone overdose. Animal weight was determined before both thighs were removed and weighed individually. Individual thigh tissue samples were homogenized in ice cold sterile phosphate buffered saline. Thigh homogenates were then quantitatively cultured onto CLED agar and incubated at 37° C. for 24 hours before colonies were counted.

[7] = test system: Escherichia coli; experiment: MIC, compound in combination with a second agent (broth microdilution); type: cell-based; details: 1:1 (wt:wt) combination with Rifampicin; for MIC: Escherichia coli
How it was run: (§2)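 Read-out is the total-drug MIC of a 1:1 weight ratio combination with another agent, e.g. rifampicin. Duplicates within 2-fold gave the lower value; wider spread meant a non-valid assay. Where compounds were tested multiple times, the mode is given.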

[8] = test system: Klebsiella pneumoniae; experiment: as above; type: cell-based; details: 1:1 (wt:wt) combination with Rifampicin; for MIC: Klebsiella pneumoniae
How it was run: as §2

[9] = test system: Acinetobacter baumannii; experiment: as above; type: cell-based; details: 1:1 (wt:wt) combination with Rifampicin; for MIC: Acinetobacter baumannii
How it was run: as §2

[10] = test system: Pseudomonas aeruginosa; experiment: as above; type: cell-based; details: 1:1 (wt:wt) combination with Rifampicin; for MIC: Pseudomonas aeruginosa
How it was run: as §2

[11] = test system: K. pneumoniae; experiment: MIC against panel of strains enriched for resistance to colistin or polymyxin B (CLSI), alone or 1:1 with rifampicin; type: cell-based, Klebsiella pneumoniae; details: one value per strain of the panel
Protocol: (§3) […] For example, a well at 2 μg/mL consisted of 1 μg/mL test compound and 1 μg/mL rifampicin.
(§4) • where n indicates the number of strains within the panel for a particular organism.

[12] = test system: P. aeruginosa; experiment: as above; type: cell-based, Pseudomonas aeruginosa; details: one value per strain of the panel
Protocol: as §3, §4

[13] = MIC is total drug concentration

MIC E. coli ATCC25922 [1]: 0.5 micrograms/mL
MIC E. coli NCTC 13441 [1]: 0.5 micrograms/mL
MIC K. pneumoniae ATCC 4352 [2]: 0.25 micrograms/mL
MIC K. pneumoniae ATCC BAA-2146 [2]: 0.25 micrograms/mL
MIC A. baumannii ATCC BAA-747 [3]: 2 micrograms/mL
MIC A. baumannii NCTC 13424 [3]: 1 micrograms/mL
MIC P. aeruginosa ATCC 27853 [4]: 0.5 micrograms/mL
MIC P. aeruginosa CCUG 59347 [4]: 2 micrograms/mL
MIC E. coli ATCC25922 ([7]; MIC = total drug concentration, strain ATCC25922): 0.125 micrograms/mL
MIC E. coli NCTC9001 ([7]; MIC = total drug concentration, strain NCTC9001): ≤0.06 micrograms/mL
MIC E. coli ATCC25922 [7, 13]: 0.125 micrograms/mL
MIC E. coli NCTC9001 [7, 13]: ≤0.06 micrograms/mL
MIC K. pneumoniae ATCC-BAA-2146 ([8]; MIC = total drug concentration, strain ATCC-BAA-2146): 0.125 micrograms/mL
MIC K. pneumoniae CCUG-59348 ([8]; MIC = total drug concentration, strain CCUG-59348): 2 micrograms/mL
MIC K. pneumoniae NCTC 13438 ([8]; MIC = total drug concentration, strain NCTC 13438): 0.125 micrograms/mL
MIC K. pneumoniae ATCC-BAA-2146 [8, 13]: 0.125 micrograms/mL
MIC K. pneumoniae CCUG-59348 [8, 13]: 2 micrograms/mL
MIC K. pneumoniae NCTC 13438 [8, 13]: 0.125 micrograms/mL
MIC A. baumannii ATCC BAA-747 ([9]; MIC = total drug concentration, strain ATCC BAA-747): ≤0.06 micrograms/mL
MIC A. baumannii CCUG57249 ([9]; MIC = total drug concentration, strain CCUG57249): ≤0.06 micrograms/mL
MIC A. baumannii NCTC 13423 ([9]; MIC = total drug concentration, strain NCTC 13423): ≤0.06 micrograms/mL
MIC A. baumannii NCTC 13424 ([9]; MIC = total drug concentration, strain NCTC 13424): ≤0.06 micrograms/mL
MIC A. baumannii ATCC BAA-747 [9, 13]: ≤0.06 micrograms/mL
MIC A. baumannii CCUG57249 [9, 13]: ≤0.06 micrograms/mL
MIC A. baumannii NCTC 13423 [9, 13]: ≤0.06 micrograms/mL
MIC A. baumannii NCTC 13424 [9, 13]: ≤0.06 micrograms/mL
MIC P. aeruginosa ATCC 27853 ([10]; MIC = total drug concentration, strain ATCC 27853): ≤0.06 micrograms/mL
MIC P. aeruginosa ATCC CRM-9027 ([10]; MIC = total drug concentration, strain ATCC CRM-9027): 0.125 micrograms/mL
MIC P. aeruginosa ATCC-47 ([10]; MIC = total drug concentration, strain ATCC-47): ≤0.06 micrograms/mL
MIC P. aeruginosa CCUG 59626 ([10]; MIC = total drug concentration, strain CCUG 59626): ≤0.06 micrograms/mL
MIC P. aeruginosa ATCC 27853 [10, 13]: ≤0.06 micrograms/mL
MIC P. aeruginosa ATCC CRM-9027 [10, 13]: 0.125 micrograms/mL
MIC P. aeruginosa ATCC-47 [10, 13]: ≤0.06 micrograms/mL
MIC P. aeruginosa CCUG 59626 [10, 13]: ≤0.06 micrograms/mL
Structure (SMILES): CC(C)C[C@@H]1NC(=O)[C@@H](Cc2ccccc2)NC(=O)[C@H](CCN)NC(=O)[C@@H](NC(=O)[C@H](CCN)NC(=O)[C@@H](NC(=O)[C@H]2CCCNC2)[C@@H](C)O)CCNC(=O)[C@H]([C@@H](C)O)NC(=O)[C@H](CCN)NC(=O)[C@H](CCN)NC1=O [Example 37, (S)-Piperidine-3-carbonyl polymyxin B nonapeptide, trifluoroacetate salt] (X3-T[Dab][Dab][Dab][dF]L[Dab][Dab]T; lactam 3-C)
HK-2 IC50 rel to PMB [5]: 21
log reduction in bacterial counts compared to non-treated control [6]: 1.75 log

MIC ([11]; Klebsiella pneumoniae, read-out: MIC Klebsiella pneumoniae (n = 11), agent alone): 16 µg/mL (≈ 19.4 µM)
MIC ([7]; MIC = total drug concentration, strain ATCC25922, read-out: MIC E. coli ATCC25922): 4 µg/mL
MIC ([7]; MIC = total drug concentration, strain NCTC9001, read-out: MIC E. coli NCTC9001): 4 µg/mL
MIC ([8]; ATCC4352, MIC = total drug concentration, strain ATCC 4352, read-out: MIC K. pneumoniae ATCC 4352): 8 µg/mL
MIC ([8]; ATCCBAA2146, MIC = total drug concentration, strain ATCC-BAA-2146, read-out: MIC K. pneumoniae ATCC-BAA-2146): 16 µg/mL
MIC ([8]; CCUG59348, MIC = total drug concentration, strain CCUG-59348, read-out: MIC K. pneumoniae CCUG-59348): 32 µg/mL
MIC ([8]; NCTC13438, MIC = total drug concentration, strain NCTC 13438, read-out: MIC K. pneumoniae NCTC 13438): 16 µg/mL
MIC ([9]; ATCCBAA747, MIC = total drug concentration, strain ATCC BAA-747, read-out: MIC A. baumannii ATCC BAA-747): 2 µg/mL
MIC ([9]; NCTC13423, MIC = total drug concentration, strain NCTC 13423, read-out: MIC A. baumannii NCTC 13423): 1 µg/mL
MIC ([9]; NCTC13424, MIC = total drug concentration, strain NCTC 13424, read-out: MIC A. baumannii NCTC 13424): 1 µg/mL
MIC ([9]; MIC = total drug concentration, strain CCUG57249, read-out: MIC A. baumannii CCUG57249): 2 µg/mL
MIC ([10]; ATCC47, MIC = total drug concentration, strain ATCC-47, read-out: MIC P. aeruginosa ATCC-47): 16 µg/mL
MIC ([10]; ATCC27853, MIC = total drug concentration, strain ATCC 27853, read-out: MIC P. aeruginosa ATCC 27853): 16 µg/mL
MIC ([10]; CCUG59626, MIC = total drug concentration, strain CCUG 59626, read-out: MIC P. aeruginosa CCUG 59626): 16 µg/mL
MIC ([10]; MIC = total drug concentration, strain ATCC CRM-9027, read-out: MIC P. aeruginosa ATCC CRM-9027): 16 µg/mL
MIC ([12]; Pseudomonas aeruginosa, read-out: MIC Pseudomonas aeruginosa (n = 6), agent alone): 32 µg/mL (≈ 38.9 µM)
Structure (SMILES): CO[C@H]1/C=C/O[C@@]2(C)Oc3c(C)c(O)c4c(O)c(c(/C=N/N5CCN(C)CC5)c(O)c4c3C2=O)NC(=O)/C(C)=C\C=C\[C@H](C)[C@H](O)[C@@H](C)[C@@H](O)[C@@H](C)[C@H](OC(C)=O)[C@@H]1C [Rifampicin, reference compound]
MIC Klebsiella pneumoniae (n = 11) ([11]; agent alone): 32 micrograms/mL and > 32 micrograms/mL and >32, 32, 32, micrograms/mL and 32, 32, >32, micrograms/mL and >32, >32 micrograms/mL
MIC Pseudomonas aeruginosa (n = 6) ([12]; agent alone): 16 micrograms/mL and 32, 32, 32 micrograms/mL
